# Test results reported in ChEMBL document CHEMBL1201862, “PubChem BioAssay data set” (2004).
# Calls of active or inactive are those of the source.
# Legend:
# CAAX prenyl protease 2 = CAAX prenyl protease 2 (Homo sapiens, UniProt Q9Y256); experiment: inhibition of Ras-converting CAAX protease Rce1 – biochemical, yeast membranes, quenched-peptide fluorescence, cherry-pick, dose response (AID 588849)
# [1] = Luminescence Cell-Based Dose Confirmation HTS to Identify Inhibitors of Platelet Dense Granule Release. [Related pubchem assays: 1663 (Primary HTS), 1678 (Summary of Project)]; assay type: functional
# [2] = target: Cyclin-dependent kinase 5/CDK5 activator 1 (Homo sapiens, UniProt Q00535); experiment: blockade of human CDK5 activity – biochemical, cherry-picked samples, set 2, dose response (AID 504545)
# [3] = target: Luciferin 4-monooxygenase (Photinus pyralis, UniProt P08659); experiment: inhibition of purified Photinus pyralis luciferase – biochemical, luminescence, dose response (AID 1891)
# [4] = general cell-killing toxicity readout – plate reader, dry powder samples, cytotoxicity control for PAX8 inhibitor project, dose response (AID 743021); assay type: functional, cell-based
# [5] = ADP-Glo luciferase signal interference – biochemical, luminescence, cherry-picked samples, set 2, artefact control for CDK5 inhibitor project, dose response (AID 504546); assay type: functional, cell-based
# BJ [6] = experiment: cells; assay type: functional, cell-based; details: Homo sapiens
# HEK293 = experiment: EBV LMP1 TES2 canonical NF-kB signalling blockers – cell-based, HEK293, luciferase, cherry-pick, dose response (AID 588343); assay type: functional; details: Homo sapiens
# INS1 = experiment: INS-1E survival protection against cytokine death – cell-based, luminescence, retest, dose response (AID 449756); assay type: functional; details: Rattus norvegicus;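 further: cell death triggered by IL-1 beta plus TNF-alpha plus IFN-gamma mixture; protective hits raise ATP signal compared with cytokine alone wells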
# Paired box protein Pax-8 = Paired box protein Pax-8 (Homo sapiens, UniProt Q06710); experiment: PAX8 transcriptional activity inhibition in RMG-I – RMG-I cells, luciferase, cherry-pick, dose response (AID 687027); assay type: functional, cell-based;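 further: luciferase reporter driven by Pax8 target thyroperoxidase promoter measured by SteadyGlo luminescence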
# [7] = DRD fibroblast viability loss – cell-based, non-viral oncogenic, luminescence, dose response (AID 1934); assay type: functional; details: Homo sapiens
# BJ [8] = experiment: BJ-TERT-LT-ST fibroblast viability loss – cell-based, RAS-independent, luminescence, dose response (AID 1935); assay type: functional; details: Homo sapiens;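 further: BJ fibroblasts immortalized with TERT plus LT and ST oncogenes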
# [9] = target: Glucose-6-phosphate 1-dehydrogenase (Homo sapiens, UniProt P11413); experiment: inhibition of Homo sapiens G6PD, dose series – biochemical, fluorescence, selectivity assay for P. falciparum G6PD inhibitor project, dose response (AID 504792); assay type: functional
# BJ [10] = experiment: BJ-TERT fibroblast viability loss – cell-based, RAS-independent, luminescence, dose response (AID 1933); assay type: functional; details: Homo sapiens
# [11] = target: T1, Voltage-gated N-type calcium channel alpha-1B subunit/Amyloid beta A4 precursor protein-binding family A member 1 (Homo sapiens, UniProt Q00975+Q02410); experiment: disruptors of Mint-PDZ/N-type channel peptide interaction – biochemical, HTRF, set 2, SAR follow-up (AID 434980); assay type: functional
# [12] = target: T1, Voltage-gated N-type calcium channel alpha-1B subunit/Amyloid beta A4 precursor protein-binding family A member 1; experiment: disruptors of Mint-PDZ/N-type channel peptide interaction – biochemical, HTRF, SAR follow-up (AID 2489); assay type: functional
# SUMO E1/E2 = SUMO E1/E2 (Homo sapiens, UniProt P63279+Q9UBE0+Q9UBT2); experiment: SAR analysis of SUMOylation using HTRF in an in-Vitro dose response assay. [Related pubchem assays (depositor defined):AID2006, AID2011, AID2018, AID2069, AID2658]; assay type: functional
# [13] = target: Transitional endoplasmic reticulum ATPase (Homo sapiens, UniProt P55072, C522A); experiment: C522A mutant p97 ATPase inhibitors, dose response, counter-screen for p97 inhibitor project, biochemical, luminescence (AID 1544)
# [14] = target: Induced myeloid leukemia cell differentiation protein Mcl-1 (Homo sapiens, UniProt Q07820); assay type: functional
# Beta-galactosidase = Beta-galactosidase (Escherichia coli, UniProt Q8VNN2); experiment: detection-enzyme interference by beta-gal modulators – biochemical, E. coli enzyme, set 3, artefact control for CCR6 antagonist project, dose response (AID 504712); assay type: functional
# [15] = target: Transitional endoplasmic reticulum ATPase (Homo sapiens, UniProt P55072); experiment: p97 ATPase inhibitors, dose response, biochemical (AID 1534)
# Aspartyl aminopeptidase = target: T2, Aspartyl aminopeptidase (Plasmodium falciparum 3D7, UniProt Q8I2J3)
# T2 sequence (Q8I2J3 whole entry): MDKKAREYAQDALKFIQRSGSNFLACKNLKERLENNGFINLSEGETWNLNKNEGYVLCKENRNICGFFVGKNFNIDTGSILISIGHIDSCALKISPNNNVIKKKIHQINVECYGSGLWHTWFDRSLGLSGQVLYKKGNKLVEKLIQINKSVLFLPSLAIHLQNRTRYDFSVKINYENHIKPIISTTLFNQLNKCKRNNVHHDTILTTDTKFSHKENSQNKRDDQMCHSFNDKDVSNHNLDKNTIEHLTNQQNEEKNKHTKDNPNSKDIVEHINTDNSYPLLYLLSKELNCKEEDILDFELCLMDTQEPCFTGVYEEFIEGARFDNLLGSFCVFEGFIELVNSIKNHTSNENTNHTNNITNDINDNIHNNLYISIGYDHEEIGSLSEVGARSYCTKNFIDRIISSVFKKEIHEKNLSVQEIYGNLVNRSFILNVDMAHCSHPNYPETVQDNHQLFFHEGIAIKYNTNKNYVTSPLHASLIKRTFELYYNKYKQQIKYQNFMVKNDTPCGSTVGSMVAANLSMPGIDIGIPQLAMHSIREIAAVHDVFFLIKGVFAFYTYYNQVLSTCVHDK
# Procathepsin L = Procathepsin L (Homo sapiens, UniProt P07711)
# Aminopeptidase N = Aminopeptidase N (Plasmodium falciparum FcB1/Columbia, UniProt O96935); experiment: malaria alanyl aminopeptidase activity blockers – biochemical, fluorogenic H-Leu-NHMec substrate, 1536-well (AID 1445); parameters: species or system Plasmodium falciparum 3D7, 3D7
# [16] = target: T3, Long-chain-fatty-acid--AMP ligase FadD28 (Mycobacterium tuberculosis, UniProt P9WQ59); experiment: Fluorescence polarization aasay to screen for inhibitors that compete for the binding of FadD28 to a bisubstrate Measured in Biochemical System Using Plate Reader - 2147-01_Inhibitor_Dose_CherryPick_Activity.; assay type: functional, Mycobacterium tuberculosis H37Rv
# T3 sequence (P9WQ59 whole entry): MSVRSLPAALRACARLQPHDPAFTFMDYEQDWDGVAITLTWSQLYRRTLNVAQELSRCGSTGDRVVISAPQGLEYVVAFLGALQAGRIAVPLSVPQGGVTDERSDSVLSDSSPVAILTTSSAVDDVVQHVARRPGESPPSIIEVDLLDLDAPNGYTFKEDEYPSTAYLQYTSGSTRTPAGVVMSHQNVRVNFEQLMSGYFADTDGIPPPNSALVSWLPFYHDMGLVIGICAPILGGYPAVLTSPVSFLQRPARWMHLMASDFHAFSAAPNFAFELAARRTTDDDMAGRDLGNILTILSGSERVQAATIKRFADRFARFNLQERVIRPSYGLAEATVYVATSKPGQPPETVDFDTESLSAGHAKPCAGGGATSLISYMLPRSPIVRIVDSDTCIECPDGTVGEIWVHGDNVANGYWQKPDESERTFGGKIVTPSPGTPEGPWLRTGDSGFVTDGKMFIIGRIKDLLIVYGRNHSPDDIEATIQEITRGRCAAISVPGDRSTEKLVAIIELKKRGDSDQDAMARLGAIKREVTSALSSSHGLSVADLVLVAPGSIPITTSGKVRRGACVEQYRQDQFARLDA
# T1 sequence (Q00975 whole entry): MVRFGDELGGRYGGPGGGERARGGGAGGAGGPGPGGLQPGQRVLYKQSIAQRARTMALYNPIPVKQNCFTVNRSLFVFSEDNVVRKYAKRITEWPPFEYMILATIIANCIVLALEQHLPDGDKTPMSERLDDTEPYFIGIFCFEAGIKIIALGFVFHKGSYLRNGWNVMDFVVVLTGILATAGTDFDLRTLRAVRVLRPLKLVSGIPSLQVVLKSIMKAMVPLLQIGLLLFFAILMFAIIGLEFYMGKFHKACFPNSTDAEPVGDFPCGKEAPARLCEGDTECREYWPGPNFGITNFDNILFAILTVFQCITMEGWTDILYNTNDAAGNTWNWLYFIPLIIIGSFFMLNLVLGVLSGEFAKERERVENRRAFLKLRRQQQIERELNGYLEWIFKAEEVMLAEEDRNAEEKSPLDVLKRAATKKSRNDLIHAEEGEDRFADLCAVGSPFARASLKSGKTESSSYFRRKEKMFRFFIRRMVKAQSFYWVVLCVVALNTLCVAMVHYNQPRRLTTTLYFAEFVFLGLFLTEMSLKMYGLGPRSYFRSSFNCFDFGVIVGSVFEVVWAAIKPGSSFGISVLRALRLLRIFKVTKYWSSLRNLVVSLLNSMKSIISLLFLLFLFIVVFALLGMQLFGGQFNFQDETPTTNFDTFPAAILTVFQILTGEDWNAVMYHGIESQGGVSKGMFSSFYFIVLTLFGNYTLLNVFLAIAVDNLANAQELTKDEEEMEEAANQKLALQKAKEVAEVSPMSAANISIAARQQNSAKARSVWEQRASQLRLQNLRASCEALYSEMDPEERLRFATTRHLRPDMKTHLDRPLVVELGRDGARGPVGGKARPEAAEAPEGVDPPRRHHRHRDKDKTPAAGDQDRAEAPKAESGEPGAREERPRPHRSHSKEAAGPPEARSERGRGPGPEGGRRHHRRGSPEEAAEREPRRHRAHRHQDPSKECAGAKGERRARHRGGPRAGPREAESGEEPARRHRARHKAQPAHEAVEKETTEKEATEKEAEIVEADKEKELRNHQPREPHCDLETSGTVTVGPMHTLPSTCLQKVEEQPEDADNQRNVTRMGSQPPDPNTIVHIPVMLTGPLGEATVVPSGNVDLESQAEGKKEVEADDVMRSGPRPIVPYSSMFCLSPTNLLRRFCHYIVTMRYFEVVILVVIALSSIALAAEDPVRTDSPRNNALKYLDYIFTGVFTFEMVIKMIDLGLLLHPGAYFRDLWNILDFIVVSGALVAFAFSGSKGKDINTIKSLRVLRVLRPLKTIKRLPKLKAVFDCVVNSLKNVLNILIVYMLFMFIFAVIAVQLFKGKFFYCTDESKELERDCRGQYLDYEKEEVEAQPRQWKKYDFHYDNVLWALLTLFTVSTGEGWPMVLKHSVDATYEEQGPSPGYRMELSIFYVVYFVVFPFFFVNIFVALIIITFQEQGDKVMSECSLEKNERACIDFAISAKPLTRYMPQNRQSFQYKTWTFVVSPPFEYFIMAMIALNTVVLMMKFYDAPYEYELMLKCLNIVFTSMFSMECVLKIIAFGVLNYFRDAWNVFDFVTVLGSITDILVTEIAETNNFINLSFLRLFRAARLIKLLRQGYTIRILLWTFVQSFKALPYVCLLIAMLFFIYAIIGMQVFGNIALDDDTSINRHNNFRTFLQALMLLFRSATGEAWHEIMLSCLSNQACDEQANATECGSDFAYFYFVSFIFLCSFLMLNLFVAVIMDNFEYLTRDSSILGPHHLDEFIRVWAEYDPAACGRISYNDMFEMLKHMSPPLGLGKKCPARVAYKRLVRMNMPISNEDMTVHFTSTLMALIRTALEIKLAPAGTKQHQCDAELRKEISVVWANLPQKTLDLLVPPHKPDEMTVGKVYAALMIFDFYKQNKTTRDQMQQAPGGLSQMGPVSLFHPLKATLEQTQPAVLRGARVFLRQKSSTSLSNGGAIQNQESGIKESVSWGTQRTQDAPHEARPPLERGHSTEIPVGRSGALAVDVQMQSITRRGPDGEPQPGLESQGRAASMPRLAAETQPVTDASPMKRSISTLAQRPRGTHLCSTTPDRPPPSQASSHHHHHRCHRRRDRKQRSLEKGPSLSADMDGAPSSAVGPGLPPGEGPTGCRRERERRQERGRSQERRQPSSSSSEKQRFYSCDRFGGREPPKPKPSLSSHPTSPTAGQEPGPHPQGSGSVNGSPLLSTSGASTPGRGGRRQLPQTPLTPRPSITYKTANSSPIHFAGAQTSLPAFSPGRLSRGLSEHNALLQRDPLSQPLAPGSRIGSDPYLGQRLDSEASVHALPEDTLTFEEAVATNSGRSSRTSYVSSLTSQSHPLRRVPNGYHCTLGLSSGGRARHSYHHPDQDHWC
# T1 sequence (Q02410 whole entry): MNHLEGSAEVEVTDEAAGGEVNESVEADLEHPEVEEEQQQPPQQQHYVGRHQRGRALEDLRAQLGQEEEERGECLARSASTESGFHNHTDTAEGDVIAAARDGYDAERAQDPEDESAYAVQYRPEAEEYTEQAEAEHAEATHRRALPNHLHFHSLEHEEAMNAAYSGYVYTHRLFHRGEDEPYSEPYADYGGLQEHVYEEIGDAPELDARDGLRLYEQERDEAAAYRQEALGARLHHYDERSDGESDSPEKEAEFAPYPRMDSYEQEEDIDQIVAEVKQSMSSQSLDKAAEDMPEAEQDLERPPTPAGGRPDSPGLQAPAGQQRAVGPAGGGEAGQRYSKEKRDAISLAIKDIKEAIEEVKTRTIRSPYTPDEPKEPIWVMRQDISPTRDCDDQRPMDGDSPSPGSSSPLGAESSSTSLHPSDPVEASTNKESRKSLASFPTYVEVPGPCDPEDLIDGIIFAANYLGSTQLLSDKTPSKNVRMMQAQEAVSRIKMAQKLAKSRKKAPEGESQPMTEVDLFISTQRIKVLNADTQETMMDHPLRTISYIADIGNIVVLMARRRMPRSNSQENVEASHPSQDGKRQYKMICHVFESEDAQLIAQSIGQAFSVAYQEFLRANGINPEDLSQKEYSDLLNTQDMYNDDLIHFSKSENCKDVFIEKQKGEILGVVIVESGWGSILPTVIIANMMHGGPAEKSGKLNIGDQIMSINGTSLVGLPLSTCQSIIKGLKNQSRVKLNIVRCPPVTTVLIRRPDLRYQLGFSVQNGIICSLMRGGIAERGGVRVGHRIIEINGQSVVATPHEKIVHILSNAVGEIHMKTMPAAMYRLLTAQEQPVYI
# Paired box protein Pax-8, sequence (Q06710 whole entry): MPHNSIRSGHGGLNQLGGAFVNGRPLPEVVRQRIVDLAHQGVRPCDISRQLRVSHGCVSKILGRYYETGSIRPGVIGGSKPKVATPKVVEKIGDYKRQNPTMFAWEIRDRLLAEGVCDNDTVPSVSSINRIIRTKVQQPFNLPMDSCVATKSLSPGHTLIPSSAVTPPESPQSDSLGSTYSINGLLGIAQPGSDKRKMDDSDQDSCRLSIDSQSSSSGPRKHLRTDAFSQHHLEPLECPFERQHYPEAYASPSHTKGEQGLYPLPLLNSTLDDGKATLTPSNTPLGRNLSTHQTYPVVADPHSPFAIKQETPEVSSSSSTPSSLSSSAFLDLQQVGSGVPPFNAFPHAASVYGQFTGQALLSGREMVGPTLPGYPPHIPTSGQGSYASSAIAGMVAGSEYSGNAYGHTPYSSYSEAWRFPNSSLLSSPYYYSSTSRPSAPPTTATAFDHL
# Glucose-6-phosphate 1-dehydrogenase, sequence (P11413 whole entry): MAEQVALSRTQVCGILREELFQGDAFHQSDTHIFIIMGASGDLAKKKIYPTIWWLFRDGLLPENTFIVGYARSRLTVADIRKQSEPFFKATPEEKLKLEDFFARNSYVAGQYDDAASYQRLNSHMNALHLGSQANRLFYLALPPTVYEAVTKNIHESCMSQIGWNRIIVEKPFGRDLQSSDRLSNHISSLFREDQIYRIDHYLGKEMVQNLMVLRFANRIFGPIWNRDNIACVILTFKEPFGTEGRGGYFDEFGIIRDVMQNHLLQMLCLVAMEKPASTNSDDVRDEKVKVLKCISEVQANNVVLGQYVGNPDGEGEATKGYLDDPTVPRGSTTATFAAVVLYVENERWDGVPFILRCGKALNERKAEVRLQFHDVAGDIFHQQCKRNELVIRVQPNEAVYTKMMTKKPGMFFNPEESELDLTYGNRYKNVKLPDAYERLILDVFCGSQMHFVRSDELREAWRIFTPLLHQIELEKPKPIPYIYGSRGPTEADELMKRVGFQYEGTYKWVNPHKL
# Transitional endoplasmic reticulum ATPase (Homo sapiens, UniProt P55072, C522A), sequence (P55072 2-806 C522A limits assumed): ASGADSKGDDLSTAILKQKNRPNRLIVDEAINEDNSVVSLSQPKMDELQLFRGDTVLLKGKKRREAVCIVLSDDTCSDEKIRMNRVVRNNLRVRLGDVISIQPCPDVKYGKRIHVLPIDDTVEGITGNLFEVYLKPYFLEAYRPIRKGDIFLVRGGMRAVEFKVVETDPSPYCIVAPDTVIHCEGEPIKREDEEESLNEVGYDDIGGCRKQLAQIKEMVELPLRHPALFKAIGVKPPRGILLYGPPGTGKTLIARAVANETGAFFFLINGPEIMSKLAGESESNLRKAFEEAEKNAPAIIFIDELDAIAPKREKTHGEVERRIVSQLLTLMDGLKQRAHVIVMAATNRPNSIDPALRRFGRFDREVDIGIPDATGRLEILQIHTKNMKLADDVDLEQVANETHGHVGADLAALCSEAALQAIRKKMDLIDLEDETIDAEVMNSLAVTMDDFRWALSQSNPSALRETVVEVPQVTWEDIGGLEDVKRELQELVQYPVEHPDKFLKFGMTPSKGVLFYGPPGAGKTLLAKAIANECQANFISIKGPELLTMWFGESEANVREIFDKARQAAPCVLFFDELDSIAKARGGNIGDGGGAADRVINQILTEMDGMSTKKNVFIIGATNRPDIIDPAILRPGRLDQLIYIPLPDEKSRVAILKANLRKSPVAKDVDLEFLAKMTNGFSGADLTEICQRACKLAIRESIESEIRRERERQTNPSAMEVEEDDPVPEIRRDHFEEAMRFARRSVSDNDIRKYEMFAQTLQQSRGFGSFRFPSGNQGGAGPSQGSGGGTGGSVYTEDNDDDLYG
structure (smiles),measurement,setting,value
COc1ccc(/C=C/c2nc3ccccc3n2C)cc1,AC50,CAAX prenyl protease 2,7.09 µM (active)
same,EC50,[1],1.01 µM (active)
same,AC50,[2],16.4 µM (active)
same,EC50,[3],0.747 µM (active)
same,AC50,[4],5.95 µM (active)
same,AC50,[5],27 µM (active)
same,EC50,BJ [6],7.64 µM (active)
same,AC50,HEK293,0.997 µM (active)
same,AC50,INS1,4.95 µM (active)
same,AC50,Paired box protein Pax-8,6.69 µM (active)
same,EC50,[7],7.64 µM (active)
same,EC50,BJ [8],> 150 µM (inconclusive)
same,IC50,[9],> 80 µM (inactive)
same,EC50,BJ [10],9.33 µM (active)
O=C(NN=Cc1ccc(F)cc1)c1cc(-c2ccco2)nc2ccccc12,IC50,[11],10.9 µM (active)
same,IC50,[12],6.45 µM (active)
same,IC50,SUMO E1/E2,5.24 µM (active)
O=C1NC(=S)S/C1=C\c1c(-c2ccccc2)[nH]c2ccccc12,IC50,[13],> 50 µM (not active)
same,IC50,[14],4.97 µM (active)
same,IC50,Beta-galactosidase,> 66.6 µM (inactive)
same,IC50,[15],> 50 µM (not active)
Cc1ccc(N2C(=O)/C(=C\Nn3cnnc3)c3ccccc3C2=O)cc1,IC50,Aspartyl aminopeptidase,1.95 µM (active)
same,IC50,Procathepsin L,> 59.6 µM (not active)
NS(=O)(=O)c1ccc(Nc2nc3ccccc3nc2NS(=O)(=O)c2cccc([N+](=O)[O-])c2)cc1,IC50,Aminopeptidase N,42.9 µM (active)
same,AC50,[16],53 µM (active)
